What was measured:
hippocampal slices = type: cell-based, mice
AChE [1] = type: cell-based
PC12 cells = type: cell-based
AChE [2] = conditions: rat, in vivo
AChE-S mRNA = conditions: rat, in vivo
AChE [3] = conditions: rat, in vivo; remark: listed apart in the source

In the case of `NC(CCCP(=O)(O)O)C(=O)O` (stereo not drawn) [APV, aminophosphonopentanoic acid], the “Effect on the evoked pfp” value (hippocampal slices) is reported as “blocked”.
For `CN1[C@@H]2CC[C@H]1C[C@@H](OC(=O)C(CO)c1ccccc1)C2` (stereo partly drawn) [atropine], the “Block of the evoked response” value (hippocampal slices) was “over 90%” and the “Reversal of the physostigmine-induced response” value (hippocampal slices) was 70%.
With `C[C@]12C[C@H](O)[C@H]3[C@@H](CCC4=CC(=O)CC[C@@]43C)[C@@H]1CC[C@@H]2C(=O)CO` [corticosterone] the “Increase in acetylthiocholine hydrolytic capacity of AChE” value (AChE [1]) was 25±14% and the “Increase in labeling intensities of both AChE splice variants versus vehicle-treated cells” value (PC12 cells) was 30-50%.
For `CNC(=O)Oc1ccc2c(c1)[C@]1(C)CCN(C)[C@@H]1N2C` [physostigmine], the “Increase in amplitude of evoked population spikes, mean” value (hippocampal slices) was 42±15%, the “Increase in amplitude of evoked population spikes, range” value (hippocampal slices) was 20-80% and the “Increase over baseline in population spike amplitudes relative to non-stressed animals” value (hippocampal slices) was 12 fold.
`CN1CCN(CC(=O)N2c3ccccc3C(=O)Nc3cccnc32)CC1` [pirenzepine] was tested, and the “DFP-induced increase of G1:G4 ratio under co-injection” value (AChE [2]) was “prevented”, the “AChE-S elevation by vehicle injection-induced stress under muscarinic blocker” value (AChE-S mRNA) was 39.1±5.2 AFU and the “AChE-S mRNA labeling, change in words” value (AChE-S mRNA) was “somewhat lower increase”. For the same compound, the “DFP-induced AChE-S expression” value (AChE-S mRNA) was 30.4±4.9 AFU, the “Effect on AChE-S or -R levels after 24 hours” value (AChE-S mRNA) was “did not show any effect” and the “Cortical DFP-induced decrease in AChE activity under pirenzepine pre-treatment” value (AChE [3]) was 44 % of control. For the same compound, the “Hippocampal regaining of AChE activity after DFP under pirenzepine pre-treatment” value (AChE [3]) was 63 % of control.
In the case of `CN1[C@@H]2C[C@@H](OC(=O)[C@H](CO)c3ccccc3)C[C@H]1[C@@H]1O[C@@H]12` [scopolamine], the “DFP-induced increase of G1:G4 ratio under co-injection” value (AChE [2]) is reported as “prevented”, the “AChE-S elevation by vehicle injection-induced stress under muscarinic blocker” value (AChE-S mRNA) is reported as 39.6±3.3 AFU and the “AChE-S mRNA labeling, change in words” value (AChE-S mRNA) is reported as “conspicuous increases”. For the same compound, the “DFP-induced AChE-S expression” value (AChE-S mRNA) was 35.1±10 AFU, the “Effect on AChE-S or -R levels after 24 hours” value (AChE-S mRNA) was “did not show any effect” and the “Effect on the DFP-induced decrease in AChE activities” value (AChE [3]) was “no significant effect”.

Reference: US20040058357A1 (priority 2003, published 2004)
